According to ChEMBL document CHEMBL6078684, “Discovery of a Novel Non-invasive AR PROTAC Degrader for the Topical Treatment of Androgenetic Alopecia” (J Med Chem, 2024):
Active and inactive are the calls of the source. The rule behind the calls is not given here.

Tests used:
[1] = target: T1, Protein cereblon/Androgen receptor (Homo sapiens, UniProt P10275+Q96SW2); assay: PROTAC activity at CRBN/AR in human dermal papilla cell assessed as induction of AR degradation measured after 24 to 72 hrs by Western blot analysis; type: cell-based
Target sequence in this assay (P10275 whole entry): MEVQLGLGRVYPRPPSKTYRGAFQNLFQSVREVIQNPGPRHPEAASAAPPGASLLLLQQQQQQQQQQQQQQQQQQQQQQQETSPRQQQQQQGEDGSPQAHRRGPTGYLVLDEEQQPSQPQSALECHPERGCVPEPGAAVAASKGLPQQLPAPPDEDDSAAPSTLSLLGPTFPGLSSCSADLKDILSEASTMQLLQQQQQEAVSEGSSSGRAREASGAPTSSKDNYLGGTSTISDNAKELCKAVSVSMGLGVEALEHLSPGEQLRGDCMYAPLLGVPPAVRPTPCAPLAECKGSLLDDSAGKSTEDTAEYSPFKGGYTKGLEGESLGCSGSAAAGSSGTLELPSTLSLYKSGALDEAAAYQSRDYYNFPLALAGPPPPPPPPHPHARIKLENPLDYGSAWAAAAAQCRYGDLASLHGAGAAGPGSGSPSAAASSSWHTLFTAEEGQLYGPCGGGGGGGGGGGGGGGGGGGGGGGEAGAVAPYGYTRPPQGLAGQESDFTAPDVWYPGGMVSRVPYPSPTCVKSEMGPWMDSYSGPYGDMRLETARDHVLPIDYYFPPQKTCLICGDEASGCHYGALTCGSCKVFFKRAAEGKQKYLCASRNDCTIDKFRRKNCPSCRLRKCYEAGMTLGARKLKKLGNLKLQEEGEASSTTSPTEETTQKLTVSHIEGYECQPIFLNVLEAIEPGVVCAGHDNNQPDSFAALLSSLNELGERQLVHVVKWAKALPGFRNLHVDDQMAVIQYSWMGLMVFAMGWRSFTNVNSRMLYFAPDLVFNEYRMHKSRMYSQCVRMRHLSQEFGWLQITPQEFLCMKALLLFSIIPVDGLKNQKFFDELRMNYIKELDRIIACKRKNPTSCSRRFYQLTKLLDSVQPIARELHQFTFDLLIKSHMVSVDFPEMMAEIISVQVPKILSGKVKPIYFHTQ
Target sequence in this assay (Q96SW2 whole entry): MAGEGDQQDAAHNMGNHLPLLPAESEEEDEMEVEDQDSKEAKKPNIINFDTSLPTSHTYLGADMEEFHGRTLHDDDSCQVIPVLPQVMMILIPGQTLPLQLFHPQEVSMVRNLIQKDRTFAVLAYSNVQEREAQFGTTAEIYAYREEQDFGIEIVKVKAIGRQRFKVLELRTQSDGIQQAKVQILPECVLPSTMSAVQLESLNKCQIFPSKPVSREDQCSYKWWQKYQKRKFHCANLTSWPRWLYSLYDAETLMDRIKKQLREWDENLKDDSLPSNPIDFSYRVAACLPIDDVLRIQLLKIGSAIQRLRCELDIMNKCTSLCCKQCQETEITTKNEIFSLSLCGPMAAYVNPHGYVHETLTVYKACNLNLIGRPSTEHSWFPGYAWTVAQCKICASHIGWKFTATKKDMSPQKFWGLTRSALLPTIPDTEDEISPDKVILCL

[2] = target: T1, Protein cereblon/Androgen receptor; assay: PROTAC activity at CRBN/AR in human dermal papilla cell assessed as induction of AR degradation measured after 24 hrs by Western blot analysis; type: cell-based
Target sequence in this assay (P10275 whole entry): as the sequence (P10275 whole entry) above
Target sequence in this assay (Q96SW2 whole entry): as the sequence (Q96SW2 whole entry) above

[3] = target: T1, Protein cereblon/Androgen receptor; assay: PROTAC activity at CRBN/AR in human dermal papilla cell assessed as induction of AR degradation by measuring maximal efficacy after 24 hrs by Western blot analysis relative to control; type: cell-based
Target sequence in this assay (P10275 whole entry, looked up): as the sequence (P10275 whole entry) above
Target sequence in this assay (Q96SW2 whole entry, looked up): as the sequence (Q96SW2 whole entry) above

[4] = target: T1, Protein cereblon/Androgen receptor; assay: PROTAC activity at CRBN/AR in human dermal papilla cell assessed as induction of AR degradation at 500 nM measured after 24 hrs by Western blot analysis; type: cell-based
Target sequence in this assay (P10275 whole entry, looked up): as the sequence (P10275 whole entry) above
Target sequence in this assay (Q96SW2 whole entry, looked up): as the sequence (Q96SW2 whole entry) above

[5] = target: T1, Protein cereblon/Androgen receptor; assay: PROTAC activity at CRBN/AR in human dermal papilla cells assessed as induction of AR degradation at 500 nM in presence of pomalidomide by Western blot analysis; type: cell-based; settings: Human dermal papilla cell
Target sequence in this assay (P10275 whole entry, looked up): as the sequence (P10275 whole entry) above
Target sequence in this assay (Q96SW2 whole entry, looked up): as the sequence (Q96SW2 whole entry) above

[6] = target: T1, Protein cereblon/Androgen receptor; assay: PROTAC activity at CRBN/AR in human dermal papilla cells assessed as decrease in AR protein level at 250 to 1000 nM preincubated with testosterone for 24 hrs followed by compound addition and measured after 48 hrs by Western blot analysis; type: cell-based; settings: Human dermal papilla cell, dose 250-1000 nM
Target sequence in this assay (P10275 whole entry, looked up): as the sequence (P10275 whole entry) above
Target sequence in this assay (Q96SW2 whole entry, looked up): as the sequence (Q96SW2 whole entry) above

[7] = target: T1, Protein cereblon/Androgen receptor; assay: PROTAC activity at CRBN/AR in human dermal papilla cells assessed as decrease in TGF-beta1 expression level at 250 to 1000 nM preincubated with testosterone for 24 hrs followed by compound addition and measured after 48 hrs by Western blot analysis; type: cell-based; settings: Human dermal papilla cell, dose 250-1000 nM
Target sequence in this assay (P10275 whole entry, looked up): as the sequence (P10275 whole entry) above
Target sequence in this assay (Q96SW2 whole entry, looked up): as the sequence (Q96SW2 whole entry) above

[8] = target: T1, Protein cereblon/Androgen receptor; assay: PROTAC activity at CRBN/AR in human dermal papilla cells assessed as inhibition of TGF-beta1 release by measuring fold change in TGF-beta1 concentration at 1 uM preincubated with testosterone for 24 hrs followed by compound addition and measured after 48 hrs by ELISA relative to enzalutamide; type: cell-based; settings: Human dermal papilla cell
Target sequence in this assay (P10275 whole entry, looked up): as the sequence (P10275 whole entry) above
Target sequence in this assay (Q96SW2 whole entry, looked up): as the sequence (Q96SW2 whole entry) above

[9] = target: T1, Protein cereblon/Androgen receptor; assay: PROTAC activity at CRBN/AR in human dermal papilla cells assessed as inhibition of TGF-beta1 release by measuring fold change in TGF-beta1 concentration at 1 uM preincubated with testosterone for 24 hrs followed by compound addition and measured after 48 hrs by ELISA relative to minoxidil; type: cell-based; settings: Human dermal papilla cell
[10] = Ratio of drug concentration in male ICR mouse skin to heart at 4 mg/ml, TOP measured after 0.25 hrs by LC-MS/MS analysis; type: ADME, tissue-based; settings: in vivo, topical_or_ocular
[11] = AUC (0 to t) in male ICR mouse skin at 4 mg/ml, TOP measured after 12 hrs by LC-MS/MS analysis; type: ADME, tissue-based, Skin of body; settings: in vivo, topical_or_ocular
[12] = Cmax in male ICR mouse plasma at 4 mg/ml, TOP measured after 12 hrs by LC-MS/MS analysis; type: ADME, cell-free; settings: topical or ocular
[13] = Drug uptake in male ICR mouse spleen at 4 mg/ml, TOP measured after 12 hrs by LC-MS/MS analysis; type: ADME, tissue-based; settings: in vivo, topical_or_ocular
[14] = Ratio of drug concentration in male ICR mouse skin to plasma at 4 mg/ml, TOP measured after 0.5 hrs by LC-MS/MS analysis; type: ADME, cell-free; settings: topical or ocular
[15] = Ratio of drug concentration in male ICR mouse skin to plasma at 4 mg/ml, TOP measured after 1 hrs by LC-MS/MS analysis; type: ADME, cell-free; settings: topical or ocular
[16] = Ratio of drug concentration in male ICR mouse skin to plasma at 4 mg/ml, TOP measured after 4 hrs by LC-MS/MS analysis; type: ADME, cell-free; settings: other tissue, topical_or_ocular
[17] = Ratio of drug concentration in male ICR mouse skin to heart at 4 mg/ml, TOP measured after 2 hrs by LC-MS/MS analysis; type: ADME, tissue-based; settings: in vivo, topical_or_ocular
[18] = Ratio of drug concentration in male ICR mouse skin to heart at 4 mg/ml, TOP measured after 8 hrs by LC-MS/MS analysis; type: ADME, tissue-based; settings: in vivo, topical_or_ocular
[19] = Ratio of drug concentration in male ICR mouse skin to heart at 4 mg/ml, TOP measured after 12 hrs by LC-MS/MS analysis; type: ADME, tissue-based; settings: in vivo, topical_or_ocular
[20] = Ratio of drug concentration in male ICR mouse skin to spleen at 4 mg/ml, TOP measured after 0.5 hrs by LC-MS/MS analysis; type: ADME, tissue-based; settings: in vivo, topical_or_ocular
[21] = Ratio of drug concentration in male ICR mouse skin to spleen at 4 mg/ml, TOP measured after 12 hrs by LC-MS/MS analysis; type: ADME, tissue-based; settings: in vivo, topical_or_ocular
[22] = Ratio of drug concentration in male ICR mouse skin to lungs at 4 mg/ml, TOP measured after 2 hrs by LC-MS/MS analysis; type: ADME, tissue-based, Skin/Lung; settings: in vivo, topical_or_ocular
[23] = Ratio of drug concentration in male ICR mouse skin to lungs at 4 mg/ml, TOP measured after 4 hrs by LC-MS/MS analysis; type: ADME, tissue-based, Skin/Lung; settings: in vivo, topical_or_ocular
[24] = Ratio of drug concentration in male ICR mouse skin to lungs at 4 mg/ml, TOP measured after 12 hrs by LC-MS/MS analysis; type: ADME, tissue-based, Skin/Lung; settings: in vivo, topical_or_ocular
[25] = Ratio of drug concentration in male ICR mouse skin to kidney at 4 mg/ml, TOP measured after 1 hrs by LC-MS/MS analysis; type: ADME, tissue-based; settings: in vivo, topical_or_ocular
[26] = Ratio of drug concentration in male ICR mouse skin to kidney at 4 mg/ml, TOP measured after 4 hrs by LC-MS/MS analysis; type: ADME, tissue-based; settings: in vivo, topical_or_ocular
Mus musculus [27] = assay: Hair regeneration efficacy in testosterone induced male C57BL/6 mouse androgenetic alopecia model at 0.1 to 0.4 %, TOP administered once daily for 14 days and measured after 21 days with co-administration of 0.2% testosterone for 28 days by photographic analysis; type: functional, organism-based; settings: dose 0.1-0.4 %, time 14.0 day
[28] = target: T2, Protein cereblon/Androgen receptor (Mus musculus) (UniProt P19091+Q8C7D2); assay: In vivo PROTAC activity at CRBN/AR in testosterone induced male C57BL/6 mouse androgenetic alopecia model assessed as decrease in AR protein level in skin at 0.4 % TOP administered once daily for 14 days with co-administration of 0.2% testosterone for 28 days by Western blot analysis relative to control; type: functional, organism-based; design: scale not given: the % may be the effect or the level left; settings: time 14.0 day
T2 sequence (P19091 whole entry, looked up): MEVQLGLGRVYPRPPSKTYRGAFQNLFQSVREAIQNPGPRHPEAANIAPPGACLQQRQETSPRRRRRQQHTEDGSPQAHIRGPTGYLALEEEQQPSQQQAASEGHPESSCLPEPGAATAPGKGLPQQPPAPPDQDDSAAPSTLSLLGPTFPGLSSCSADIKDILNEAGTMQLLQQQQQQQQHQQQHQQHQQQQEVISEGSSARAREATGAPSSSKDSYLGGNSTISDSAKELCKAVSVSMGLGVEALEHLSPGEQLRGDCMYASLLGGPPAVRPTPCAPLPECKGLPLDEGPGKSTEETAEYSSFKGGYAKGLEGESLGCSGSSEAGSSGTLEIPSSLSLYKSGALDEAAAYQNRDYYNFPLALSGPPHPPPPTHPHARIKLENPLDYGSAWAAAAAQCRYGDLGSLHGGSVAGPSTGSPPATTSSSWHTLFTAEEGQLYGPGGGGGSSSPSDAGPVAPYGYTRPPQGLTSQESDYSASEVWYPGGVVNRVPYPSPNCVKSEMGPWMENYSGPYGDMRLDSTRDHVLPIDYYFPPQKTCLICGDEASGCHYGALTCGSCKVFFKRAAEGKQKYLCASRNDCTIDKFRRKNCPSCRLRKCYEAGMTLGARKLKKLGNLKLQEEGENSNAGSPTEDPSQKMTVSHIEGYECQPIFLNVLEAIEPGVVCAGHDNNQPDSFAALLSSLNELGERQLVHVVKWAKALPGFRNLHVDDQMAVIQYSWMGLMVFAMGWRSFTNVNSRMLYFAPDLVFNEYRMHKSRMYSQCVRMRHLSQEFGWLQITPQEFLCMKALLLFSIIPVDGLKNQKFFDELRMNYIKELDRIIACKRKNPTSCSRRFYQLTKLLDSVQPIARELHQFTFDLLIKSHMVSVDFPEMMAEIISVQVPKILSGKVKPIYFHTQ
T2 sequence (Q8C7D2 whole entry, looked up): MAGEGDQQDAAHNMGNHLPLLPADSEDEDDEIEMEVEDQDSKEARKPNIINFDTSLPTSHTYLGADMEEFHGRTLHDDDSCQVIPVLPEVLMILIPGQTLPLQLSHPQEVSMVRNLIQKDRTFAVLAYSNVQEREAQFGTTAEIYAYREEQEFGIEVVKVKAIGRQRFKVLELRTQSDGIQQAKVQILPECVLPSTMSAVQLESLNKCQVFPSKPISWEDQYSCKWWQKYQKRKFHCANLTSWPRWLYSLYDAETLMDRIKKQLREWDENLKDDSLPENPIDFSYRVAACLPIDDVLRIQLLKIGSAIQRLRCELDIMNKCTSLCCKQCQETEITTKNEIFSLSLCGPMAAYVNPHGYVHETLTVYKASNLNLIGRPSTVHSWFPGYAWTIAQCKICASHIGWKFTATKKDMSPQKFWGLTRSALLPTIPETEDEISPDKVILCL

Mus musculus [29] = assay: Hair regeneration efficacy in testosterone induced male C57BL/6 mouse androgenetic alopecia model assessed as improvement in morphology of regenerated hair at 0.1 %, TOP administered once daily for 14 days with co-administration of 0.2% testosterone and measured after 28 days by SEM analysis; type: functional, organism-based; settings: time 28.0 day
Mus musculus [30] = assay: Hair regeneration efficacy in testosterone induced male C57BL/6 mouse androgenetic alopecia model assessed as entry of hair follicles to anagen phase by measuring high density of enlarged hair bulbs in subcutaneous tissue at 0.4 %, TOP administered once daily for 14 days with co-administration of 0.2% testosterone for 28 days by H and E staining based analysis; type: functional, organism-based; settings: time 14.0 day
Mus musculus [31] = assay: Hair regeneration efficacy in testosterone induced male C57BL/6 mouse androgenetic alopecia model assessed as increase in hair cycle score at 0.4 %, TOP administered once daily for 14 days with co-administration of 0.2% testosterone for 28 days; type: functional, organism-based; settings: time 14.0 day
[32] = target: T2, Protein cereblon/Androgen receptor (Mus musculus); assay: (§1) In vivo PROTAC activity at CRBN/AR in testosterone induced male C57BL/6 mouse androgenetic alopecia model assessed as increase in beta-catenin expression level in skin at 0.4 % TOP administered once daily for 14 days with co-administration of 0.2% testosterone for 28 days by DAPI staining based immunofluorescence analysis; type: functional, organism-based; settings: time 14.0 day
[33] = target: T2, Protein cereblon/Androgen receptor (Mus musculus); assay: as §1, with “decrease” for “increase”, “TGF-beta” for “beta-catenin”; type: functional, organism-based; settings: time 14.0 day
Mus musculus [34] = assay: as §1, with “Hair regeneration efficacy” for “In vivo PROTAC activity at CRBN/AR”, “Ki67” for “beta-catenin”, “expression” for “expression level”, “0.1” for “0.4”; type: functional, organism-based; settings: time 14.0 day

DC50 [1]: 200 nM | DC50 [2]: 262 nM | Emax [3]: 63% | Activity [5]: inactive | Activity [6]: Active | Activity [7]: Active | fold change (FC) [8]: 0.62 | fold change (FC) [9]: 0.77 | Ratio [10]: 333.81 | AUCt [11]: 651924.91 ng·h/g | Cmax [12]: 708 ng/mL | Drug uptake [13]: Active | Kp at 0.5 h [14]: 129 | Kp at 1 h [15]: 71.5 | Ratio [16]: 1873.84 | Ratio [17]: 638.59 | Ratio [18]: 754.91 | Ratio [19]: 274.38 | Ratio [20]: 67.05 | Ratio [21]: 249.88 | Ratio [22]: 198.98 | Ratio [23]: 238.43 | Ratio [24]: 288.26 | Ratio [25]: 467.24 | Ratio [26]: 285.69 | Activity [28]: > 50% | Activity [32]: Active | Activity [33]: Active
SMILES: N#Cc1ccc(O[C@H]2CC[C@H](NC(=O)c3ccc(C4CCN(CC5CCCN(c6ccc(C(=O)NC7CCC(=O)NC7=O)cc6)C5)CC4)cc3)CC2)cc1Cl (some centres undefined)
Activity [4]: Active; Maximum Degradation Level Observed | Activity (Mus musculus [27]): Active | Activity (Mus musculus [29]): Active | Activity (Mus musculus [30]): Active | Activity (Mus musculus [31]): Active | Activity (Mus musculus [34]): Active; Moderate Increase Observed Compared To Model Group
